# Measured values reported in PubChem BioAssay (NCI).
#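 Five compound concentrations were applied to cells in 96-well plates for 48 hours; endpoints were derived by simple linear interpolation of the resulting dose-response curve. TGI denotes the concentration required for complete inhibition of growth.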
# What was measured:
# Test in all cases: NCI-60 cell line screen, 48 h
# 786-0 renal = system: 786-0 renal
# A498 renal = system: A498 renal
# A549 NSCLC = system: A549 NSCLC
# ACHN renal = system: ACHN renal
# BT-549 breast = system: BT-549 breast
# CAKI-1 renal = system: CAKI-1 renal
# CCRF-CEM leukemia = system: CCRF-CEM leukemia
# COLO 205 colon = system: COLO 205 colon
# DU-145 prostate = system: DU-145 prostate
# HCT-116 colon = system: HCT-116 colon
# HCT-15 colon = system: HCT-15 colon
# HL-60(TB) leukemia = system: HL-60(TB) leukemia
# HOP-62 NSCLC = system: HOP-62 NSCLC
# HOP-92 NSCLC = system: HOP-92 NSCLC
# HS 578T breast = system: HS 578T breast
# HT29 colon = system: HT29 colon
# IGROV1 ovarian = system: IGROV1 ovarian
# K-562 leukemia = system: K-562 leukemia
# KM12 colon = system: KM12 colon
# LOX IMVI melanoma = system: LOX IMVI melanoma
# M14 melanoma = system: M14 melanoma
# MALME-3M melanoma = system: MALME-3M melanoma
# MCF7 breast = system: MCF7 breast
# MDA-MB-231 breast = system: MDA-MB-231 breast
# MDA-MB-435 = system: MDA-MB-435
# MDA-N = system: MDA-N
# MOLT-4 leukemia = system: MOLT-4 leukemia
# NCI-H226 lung = system: NCI-H226 lung
# NCI-H23 lung = system: NCI-H23 lung
# NCI-H460 lung = system: NCI-H460 lung
# NCI-H522 lung = system: NCI-H522 lung
# NCI/ADR-RES ovarian = system: NCI/ADR-RES ovarian
# OVCAR-3 ovarian = system: OVCAR-3 ovarian
# OVCAR-4 ovarian = system: OVCAR-4 ovarian
# OVCAR-5 ovarian = system: OVCAR-5 ovarian
# OVCAR-8 ovarian = system: OVCAR-8 ovarian
# PC-3 prostate = system: PC-3 prostate
# RXF 393 renal = system: RXF 393 renal
# SF-268 CNS = system: SF-268 CNS
# SF-295 CNS = system: SF-295 CNS
# SF-539 CNS = system: SF-539 CNS
# SK-MEL-2 melanoma = system: SK-MEL-2 melanoma
# SK-MEL-28 melanoma = system: SK-MEL-28 melanoma
# SK-MEL-5 melanoma = system: SK-MEL-5 melanoma
# SK-OV-3 ovarian = system: SK-OV-3 ovarian
# SN12C renal = system: SN12C renal
# SNB-19 CNS = system: SNB-19 CNS
# SNB-75 CNS = system: SNB-75 CNS
# SR leukemia = system: SR leukemia
# SW-620 colon = system: SW-620 colon
# T-47D breast = system: T-47D breast
# TK-10 renal = system: TK-10 renal
# U251 CNS = system: U251 CNS
# UACC-257 melanoma = system: UACC-257 melanoma
# UACC-62 melanoma = system: UACC-62 melanoma
# UO-31 renal = system: UO-31 renal
# EKVX NSCLC = system: EKVX NSCLC
# HCC-2998 colon = system: HCC-2998 colon
# RPMI-8226 leukemia = system: RPMI-8226 leukemia
structure (smiles),measurement,setting,value
O=C(CSc1nnc(-c2ccccn2)s1)N/N=C/c1ccc([N+](=O)[O-])cc1,TGI,786-0 renal,> 100 µM
same,TGI,A498 renal,75.3 µM
same,TGI,A549 NSCLC,> 100 µM
same,TGI,ACHN renal,> 100 µM
same,TGI,BT-549 breast,> 100 µM
same,TGI,CAKI-1 renal,> 100 µM
same,TGI,CCRF-CEM leukemia,> 100 µM
same,TGI,COLO 205 colon,> 100 µM
same,TGI,DU-145 prostate,49.5 µM
same,TGI,HCT-116 colon,> 100 µM
same,TGI,HCT-15 colon,> 100 µM
same,TGI,HL-60(TB) leukemia,> 100 µM
same,TGI,HOP-62 NSCLC,> 100 µM
same,TGI,HOP-92 NSCLC,42.3 µM
same,TGI,HS 578T breast,> 100 µM
same,TGI,HT29 colon,> 100 µM
same,TGI,IGROV1 ovarian,> 100 µM
same,TGI,K-562 leukemia,> 100 µM
same,TGI,KM12 colon,> 100 µM
same,TGI,LOX IMVI melanoma,> 100 µM
same,TGI,M14 melanoma,> 100 µM
same,TGI,MALME-3M melanoma,> 100 µM
same,TGI,MCF7 breast,> 100 µM
same,TGI,MDA-MB-231 breast,49.1 µM
same,TGI,MDA-MB-435,> 100 µM
same,TGI,MDA-N,> 100 µM
same,TGI,MOLT-4 leukemia,> 100 µM
same,TGI,NCI-H226 lung,> 100 µM
same,TGI,NCI-H23 lung,> 100 µM
same,TGI,NCI-H460 lung,> 100 µM
same,TGI,NCI-H522 lung,> 100 µM
same,TGI,NCI/ADR-RES ovarian,> 100 µM
same,TGI,OVCAR-3 ovarian,> 100 µM
same,TGI,OVCAR-4 ovarian,> 100 µM
same,TGI,OVCAR-5 ovarian,> 100 µM
same,TGI,OVCAR-8 ovarian,> 100 µM
same,TGI,PC-3 prostate,> 100 µM
same,TGI,RXF 393 renal,37.3 µM
same,TGI,SF-268 CNS,71.9 µM
same,TGI,SF-295 CNS,> 100 µM
same,TGI,SF-539 CNS,> 100 µM
same,TGI,SK-MEL-2 melanoma,> 100 µM
same,TGI,SK-MEL-28 melanoma,> 100 µM
same,TGI,SK-MEL-5 melanoma,> 100 µM
same,TGI,SK-OV-3 ovarian,> 100 µM
same,TGI,SN12C renal,> 100 µM
same,TGI,SNB-19 CNS,92.5 µM
same,TGI,SNB-75 CNS,10.3 µM
same,TGI,SR leukemia,> 100 µM
same,TGI,SW-620 colon,> 100 µM
same,TGI,T-47D breast,> 100 µM
same,TGI,TK-10 renal,79 µM
same,TGI,U251 CNS,41.2 µM
same,TGI,UACC-257 melanoma,> 100 µM
same,TGI,UACC-62 melanoma,> 100 µM
same,TGI,UO-31 renal,4.19 µM
COc1cc(/C=C2\C[C@H]3[C@@H]4CC=C5C[C@@H](OC(C)=O)CC[C@]5(C)[C@H]4CC[C@]3(C)\C2=N\O)cc(OC)c1OC,TGI,786-0 renal,> 43.3 µM
same,TGI,A549 NSCLC,> 100 µM
same,TGI,ACHN renal,> 32.8 µM
same,TGI,BT-549 breast,> 90.8 µM
same,TGI,CAKI-1 renal,> 60.2 µM
same,TGI,CCRF-CEM leukemia,> 30.6 µM
same,TGI,COLO 205 colon,17.8 µM
same,TGI,DU-145 prostate,> 100 µM
same,TGI,EKVX NSCLC,> 81.9 µM
same,TGI,HCC-2998 colon,> 100 µM
same,TGI,HCT-116 colon,> 100 µM
same,TGI,HCT-15 colon,> 100 µM
same,TGI,HL-60(TB) leukemia,15.8 µM
same,TGI,HOP-62 NSCLC,> 100 µM
same,TGI,HOP-92 NSCLC,9.43 µM
same,TGI,HS 578T breast,> 100 µM
same,TGI,HT29 colon,> 68.4 µM
same,TGI,IGROV1 ovarian,> 100 µM
same,TGI,K-562 leukemia,> 100 µM
same,TGI,KM12 colon,> 100 µM
same,TGI,LOX IMVI melanoma,38.4 µM
same,TGI,M14 melanoma,> 100 µM
same,TGI,MALME-3M melanoma,> 60.9 µM
same,TGI,MCF7 breast,> 100 µM
same,TGI,MDA-MB-231 breast,> 100 µM
same,TGI,MDA-MB-435,> 91.3 µM
same,TGI,MDA-N,> 100 µM
same,TGI,MOLT-4 leukemia,> 25.5 µM
same,TGI,NCI-H226 lung,> 100 µM
same,TGI,NCI-H23 lung,> 100 µM
same,TGI,NCI-H460 lung,> 100 µM
same,TGI,NCI-H522 lung,> 49.8 µM
same,TGI,NCI/ADR-RES ovarian,> 88.9 µM
same,TGI,OVCAR-3 ovarian,> 100 µM
same,TGI,OVCAR-4 ovarian,> 83.7 µM
same,TGI,OVCAR-5 ovarian,> 100 µM
same,TGI,OVCAR-8 ovarian,> 100 µM
same,TGI,PC-3 prostate,18.6 µM
same,TGI,RPMI-8226 leukemia,3.08 µM
same,TGI,RXF 393 renal,4.28 µM
same,TGI,SF-268 CNS,> 100 µM
same,TGI,SF-295 CNS,13 µM
same,TGI,SF-539 CNS,> 92.4 µM
same,TGI,SK-MEL-2 melanoma,76.6 µM
same,TGI,SK-MEL-28 melanoma,> 72.1 µM
same,TGI,SK-MEL-5 melanoma,14.7 µM
same,TGI,SK-OV-3 ovarian,> 100 µM
same,TGI,SN12C renal,> 100 µM
same,TGI,SNB-19 CNS,> 100 µM
same,TGI,SNB-75 CNS,> 43.3 µM
same,TGI,SR leukemia,14.8 µM
same,TGI,SW-620 colon,> 100 µM
same,TGI,T-47D breast,5.22 µM
same,TGI,TK-10 renal,> 100 µM
same,TGI,U251 CNS,> 86.3 µM
same,TGI,UACC-257 melanoma,> 100 µM
same,TGI,UACC-62 melanoma,45.6 µM
same,TGI,UO-31 renal,95 µM
